# Results published in ChEMBL document CHEMBL3885881, “DrugMatrix”.
# Organism: Rattus norvegicus
# Assay: DrugMatrix - Regimen: Daily Repeat
# Assay type: toxicity, organism-based, Sprague-Dawley
# Parameters: regimen Daily Repeat, gender Male, age 6-8 weeks
# Details: in vivo, po, route oral GAVAGE, vehicle 100 % WATER; for BASOPHIL / EOSINOPHIL / ERYTHROCYTE COUNT / HEMATOCRIT / HEMOGLOBIN / LEUKOCYTE COUNT / LYMPHOCYTE / MEAN CORPUSCULAR HEMOGLOBIN / MEAN CORPUSCULAR HEMOGLOBIN CONCENTRATION / MEAN CORPUSCULAR VOLUME / MONOCYTE / NEUTROPHIL / PLATELET COUNT: tissue Blood; for ALANINE AMINOTRANSFERASE / ALBUMIN / ALKALINE PHOSPHATASE / ASPARTATE AMINOTRANSFERASE / BLOOD UREA NITROGEN / CHLORIDE / CHOLESTEROL / CREATINE PHOSPHOKINASE / CREATININE / GLUCOSE / PHOSPHORUS / POTASSIUM / SODIUM / TOTAL BILIRUBIN / TOTAL PROTEIN: tissue Plasma
# [1] = 0 mg/kg, 72 h, dose level Control, time 3 day
# [2] = 0 mg/kg, 120 h, dose level Control, time 5 day
# [3] = 4 mg/kg, 72 h, dose level Low, time 3 day
# [4] = 4 mg/kg, 120 h, dose level Low, time 5 day
smiles,measurement,setting,value
CCN(CC)CCOC(=O)C1(C2CCCCC2)CCCCC1 [DICYCLOMINE],BASOPHIL,[1],0%
same,EOSINOPHIL,[1],0.5%
same,ERYTHROCYTE COUNT,[1],5.8 x10E6/uL
same,HEMATOCRIT,[1],35.07%
same,HEMOGLOBIN,[1],14.12 G/DL
same,LEUKOCYTE COUNT,[1],13.7 x10E3/uL
same,LYMPHOCYTE,[1],82.33%
same,MEAN CORPUSCULAR HEMOGLOBIN,[1],24.38 pg
same,MEAN CORPUSCULAR HEMOGLOBIN CONCENTRATION,[1],40.28 G/DL
same,MEAN CORPUSCULAR VOLUME,[1],60.52 fL
same,MONOCYTE,[1],2.67%
same,NEUTROPHIL,[1],14.5%
same,PLATELET COUNT,[1],911.5 x10E3/uL
same,ALANINE AMINOTRANSFERASE,[1],36.83 u/L
same,ALBUMIN,[1],3.75 G/DL
same,ALKALINE PHOSPHATASE,[1],399.83 u/L
same,ASPARTATE AMINOTRANSFERASE,[1],66 u/L
same,BLOOD UREA NITROGEN,[1],14.67 mg/dL
same,CHLORIDE,[1],101.67 MEQ/L
same,CHOLESTEROL,[1],66.33 mg/dL
same,CREATINE PHOSPHOKINASE,[1],139.5 u/L
same,CREATININE,[1],0.92 mg/dL
same,GLUCOSE,[1],175 mg/dL
same,PHOSPHORUS,[1],11.42 mg/dL
same,POTASSIUM,[1],7.03 MEQ/L
same,SODIUM,[1],148.5 MEQ/L
same,TOTAL BILIRUBIN,[1],1.13 mg/dL
same,TOTAL PROTEIN,[1],6.87 G/DL
same,BASOPHIL,[2],0%
same,EOSINOPHIL,[2],0.2%
same,ERYTHROCYTE COUNT,[2],6.02 x10E6/uL
same,HEMATOCRIT,[2],36.48%
same,HEMOGLOBIN,[2],14.38 G/DL
same,LEUKOCYTE COUNT,[2],12.34 x10E3/uL
same,LYMPHOCYTE,[2],83%
same,MEAN CORPUSCULAR HEMOGLOBIN,[2],23.92 pg
same,MEAN CORPUSCULAR HEMOGLOBIN CONCENTRATION,[2],39.44 G/DL
same,MEAN CORPUSCULAR VOLUME,[2],60.66 fL
same,MONOCYTE,[2],3%
same,NEUTROPHIL,[2],13.8%
same,PLATELET COUNT,[2],1190.6 x10E3/uL
same,ALANINE AMINOTRANSFERASE,[2],43 u/L
same,ALBUMIN,[2],3.73 G/DL
same,ALKALINE PHOSPHATASE,[2],393 u/L
same,ASPARTATE AMINOTRANSFERASE,[2],62.33 u/L
same,BLOOD UREA NITROGEN,[2],16.33 mg/dL
same,CHLORIDE,[2],101.67 MEQ/L
same,CHOLESTEROL,[2],65.5 mg/dL
same,CREATINE PHOSPHOKINASE,[2],130.67 u/L
same,CREATININE,[2],0.58 mg/dL
same,GLUCOSE,[2],180.67 mg/dL
same,PHOSPHORUS,[2],11.28 mg/dL
same,POTASSIUM,[2],7.05 MEQ/L
same,SODIUM,[2],148.17 MEQ/L
same,TOTAL BILIRUBIN,[2],0.72 mg/dL
same,TOTAL PROTEIN,[2],6.83 G/DL
same,BASOPHIL,[3],0%
same,EOSINOPHIL,[3],0.33%
same,ERYTHROCYTE COUNT,[3],6.01 x10E6/uL
same,HEMATOCRIT,[3],36.27%
same,HEMOGLOBIN,[3],14.33 G/DL
same,LEUKOCYTE COUNT,[3],12.73 x10E3/uL
same,LYMPHOCYTE,[3],85.67%
same,MEAN CORPUSCULAR HEMOGLOBIN,[3],23.9 pg
same,MEAN CORPUSCULAR HEMOGLOBIN CONCENTRATION,[3],39.57 G/DL
same,MEAN CORPUSCULAR VOLUME,[3],60.4 fL
same,MONOCYTE,[3],2%
same,NEUTROPHIL,[3],12%
same,PLATELET COUNT,[3],1302.67 x10E3/uL
same,ALANINE AMINOTRANSFERASE,[3],37.67 u/L
same,ALBUMIN,[3],3.63 G/DL
same,ALKALINE PHOSPHATASE,[3],354.67 u/L
same,ASPARTATE AMINOTRANSFERASE,[3],62.33 u/L
same,BLOOD UREA NITROGEN,[3],14 mg/dL
same,CHLORIDE,[3],102.67 MEQ/L
same,CHOLESTEROL,[3],65.33 mg/dL
same,CREATINE PHOSPHOKINASE,[3],133.33 u/L
same,CREATININE,[3],0.63 mg/dL
same,GLUCOSE,[3],179.67 mg/dL
same,PHOSPHORUS,[3],11.7 mg/dL
same,POTASSIUM,[3],6.7 MEQ/L
same,SODIUM,[3],150.67 MEQ/L
same,TOTAL BILIRUBIN,[3],0.53 mg/dL
same,TOTAL PROTEIN,[3],6.6 G/DL
same,BASOPHIL,[4],0%
same,EOSINOPHIL,[4],0.33%
same,ERYTHROCYTE COUNT,[4],6.36 x10E6/uL
same,HEMATOCRIT,[4],39.27%
same,HEMOGLOBIN,[4],15.3 G/DL
same,LEUKOCYTE COUNT,[4],12.77 x10E3/uL
same,LYMPHOCYTE,[4],87.33%
same,MEAN CORPUSCULAR HEMOGLOBIN,[4],24.03 pg
same,MEAN CORPUSCULAR HEMOGLOBIN CONCENTRATION,[4],38.97 G/DL
same,MEAN CORPUSCULAR VOLUME,[4],61.73 fL
same,MONOCYTE,[4],2.67%
same,NEUTROPHIL,[4],9.67%
same,PLATELET COUNT,[4],1082 x10E3/uL
same,ALANINE AMINOTRANSFERASE,[4],45 u/L
same,ALBUMIN,[4],3.6 G/DL
same,ALKALINE PHOSPHATASE,[4],424.67 u/L
same,ASPARTATE AMINOTRANSFERASE,[4],67.67 u/L
same,BLOOD UREA NITROGEN,[4],15.67 mg/dL
same,CHLORIDE,[4],104.33 MEQ/L
same,CHOLESTEROL,[4],65 mg/dL
same,CREATINE PHOSPHOKINASE,[4],107.33 u/L
same,CREATININE,[4],0.6 mg/dL
same,GLUCOSE,[4],195 mg/dL
same,PHOSPHORUS,[4],12.53 mg/dL
same,POTASSIUM,[4],6.67 MEQ/L
same,SODIUM,[4],151 MEQ/L
same,TOTAL BILIRUBIN,[4],0.63 mg/dL
same,TOTAL PROTEIN,[4],6.53 G/DL
